These results are taken from patent US11780826B2 (Amgen Inc., priority 2017, dated 2023).

The experiment relates to Bovine cardiac myofibrils. The experiment can be described thus: In vitro model of dose-dependent myofibril ATPase modulation (AC1.4, pyruvate kinase/lactate dehydrogenase-coupled ATPase assay at pCa25). As to conditions: concentration at which ATPase activity was 1.4-fold higher than the bottom of the dose curve, mean of a minimum of two independent tests. In kind it is biochemical. A digest of the protocol: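 Compound dilutions were premixed with myofibrils, coupling enzymes, EGTA and CaCl2, then the reaction was started with an equal volume carrying ATP (final 1 mM), NADH and PEP. ATP turnover was followed at 340 nm, and dose responses were fit to a four-parameter equation.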
`O=C(N[C@@H](c1ccc(C(F)(F)F)cc1F)C1COC1)[C@H]1C[C@H]2C[C@H]2N1C(=O)c1cncc(C(F)(F)F)c1` [Example 527, (1R,3R,5R)-N-((R)-(2-fluoro-4-(trifluoromethyl)phenyl)(3-oxetanyl)methyl)-2-((5-(trifluoromethyl)-3-pyridinyl)carbonyl)-2-azabicyclo[3.1.0]hexane-3-carboxamide] showed an AC1.4 of 2.5985 µM.
Then `CN(C)S(=O)(=O)c1cccc(C(=O)N2CCC[C@@H]2C(=O)N[C@H](CO)c2ccc(C(F)(F)F)cc2)c1` [Example 678, 1-(3-(dimethylsulfamoyl)benzoyl)-N-((1S)-2-hydroxy-1-(4-(trifluoromethyl)phenyl)ethyl)-D-prolinamide], with 4.993 µM; and `N#CC1CN(S(=O)(=O)N2CCC[C@H](C(=O)N3CCC[C@@H]3C(=O)NCCc3ccc(C(F)(F)F)cc3)C2)C1` [Example 811, 1-(((3S)-1-((3-cyano-1-azetidinyl)sulfonyl)-3-piperidinyl)carbonyl)-N-(2-(4-(trifluoromethyl)phenyl)ethyl)-D-prolinamide], with 8.7795 µM; and `C[C@@H](NC(=O)[C@H]1CCCN1C(=O)c1cc(F)cc(S(=O)(=O)N2CC(C#N)C2)c1)c1ccc(C(F)(F)F)cc1` [Example 16, 1-((3-((3-cyano-1-azetidinyl)sulfonyl)-5-fluorophenyl)carbonyl)-N-((1R)-1-(4-(trifluoromethyl)phenyl)ethyl)-D-prolinamide], with 0.0238 µM.
In the case of `Cc1ccc(C(=O)N2[C@@H](C(=O)N[C@@H](c3cc(F)c(Cl)cc3F)C3COC3)C[C@H]3C[C@H]32)cc1S(C)(=O)=O` [Example 472, (1R,3R,5R)-N-((R)-(4-chloro-2,5-difluorophenyl)(3-oxetanyl)methyl)-2-(4-methyl-3-(methylsulfonyl)benzoyl)-2-azabicyclo[3.1.0]hexane-3-carboxamide] it was 1.807 µM; in that of `COc1cccc(CNC(=O)[C@H]2CCCN2C(=O)[C@H]2CCCN(S(=O)(=O)N3CC(C#N)C3)C2)c1Cl` [Example 583, N-(2-chloro-3-methoxybenzyl)-1-(((3S)-1-((3-cyano-1-azetidinyl)sulfonyl)-3-piperidinyl)carbonyl)-D-prolinamide], 3.3715 µM.
`N#CC1CN(S(=O)(=O)N2CCN[C@H](C(=O)N3CCC[C@@H]3C(=O)NCc3ccc(C(F)(F)F)cc3)C2)C1` [Example 239, 1-(((2S)-4-((3-cyano-1-azetidinyl)sulfonyl)-2-piperazinyl)carbonyl)-N-(4-(trifluoromethyl)benzyl)-D-prolinamide] showed an AC1.4 of 0.5676 µM.
In the case of `O=C(NCc1ccc(C(F)(F)F)cc1)[C@H]1CCCN1C(=O)[C@H]1CCCN(S(=O)(=O)N2CCC2c2ccccc2)C1` (stereo partly drawn) [Example 339, 1-(((3S)-1-(((2R)-2-phenyl-1-azetidinyl)sulfonyl)-3-piperidinyl)carbonyl)-N-(4-(trifluoromethyl)benzyl)-D-prolinamide,1-(((3S)-1-(((2S)-2-phenyl-1-azetidinyl)sulfonyl)-3-piperidinyl)carbonyl)-N-(4-(trifluoromethyl)benzyl)-D-prolinamide] it was 0.9511 µM; in that of `N#CC1CN(S(=O)(=O)N2CCC[C@H](C(=O)N3CCC[C@@H]3C(=O)NCc3cc(Cl)ccc3F)C2)C1` [Example 549, N-(5-chloro-2-fluorobenzyl)-1-(((3S)-1-((3-cyano-1-azetidinyl)sulfonyl)-3-piperidinyl)carbonyl)-D-prolinamide], 2.8405 µM.
Then `CS(=O)(=O)c1cccc(C(=O)N2[C@@H](C(=O)N[C@@H](c3ccc(C(F)(F)F)cc3)C3CC3)C[C@H]3C[C@H]32)c1` [Example 596, (1R,3R,5R)-N-((R)-cyclopropyl(4-(trifluoromethyl)phenyl)methyl)-2-(3-(methylsulfonyl)benzoyl)-2-azabicyclo[3.1.0]hexane-3-carboxamide], with 2.9335 µM; and `CC1CCN1S(=O)(=O)N1CCC[C@H](C(=O)N2CCC[C@@H]2C(=O)NCc2ccc(C(F)(F)F)cc2)C1` (stereo partly drawn) [Example 769, (2R)-1-((3S)-1-((2-methylazetidin-1-yl)sulfonyl)piperidine-3-carbonyl)-N-(4-(trifluoromethyl)benzyl)pyrrolidine-2-carboxamide], with 8.078 µM.
In the case of `O=C(N[C@@H](c1ccc(C(F)(F)F)cc1F)C1COC1)[C@H]1C[C@H]2C[C@H]2N1C(=O)c1cc(C2CC2)ccn1` [Example 718, (1R,3R,5R)-2-((4-cyclopropyl-2-pyridinyl)carbonyl)-N-((R)-(2-fluoro-4-(trifluoromethyl)phenyl)(3-oxetanyl)methyl)-2-azabicyclo[3.1.0]hexane-3-carboxamide] it was 6.2625 µM; in that of `O=C(N[C@@H](c1cc(F)c(C(F)(F)F)cc1F)[C@H]1C[C@H](O)C1)[C@H]1C[C@H]2C[C@H]2N1C(=O)c1ccnc(C(F)F)c1` [Example 831, (1R,3R,5R)-N-((R)-(2,5-difluoro-4-(trifluoromethyl)phenyl)((lr,3R)-3-hydroxycyclobutyl)methyl)-2-(2-(difluoromethyl)isonicotinoyl)-2-azabicyclo[3.1.0]hexane-3-carboxamide], 0.6115 µM; in that of `N#CC1CN(S(=O)(=O)N2CCC[C@H](C(=O)N3CCC[C@@H]3C(=O)NCc3ccccc3)C2)C1` [Example 758, (R)—N-benzyl-1-((S)-1-((3-cyanoazetidin-1-yl)sulfonyl)piperidine-3-carbonyl)pyrrolidine-2-carboxamide], 7.61 µM.
For the molecule `CS(=O)(=O)c1cccc(C(=O)N2CC=C[C@@H]2C(=O)N[C@@H](c2ccc(C(F)(F)F)cc2F)C2CC2)c1` [Example 401, (2R)-N-((R)-cyclopropyl(2-fluoro-4-(trifluoromethyl)phenyl)methyl)-1-(3-(methylsulfonyl)benzoyl)-2,5-dihydro-1H-pyrrole-2-carboxamide], the AC1.4 amounted to 1.378 µM.
Then `C[C@@H](NC(=O)[C@H]1CCCN1C(=O)[C@H]1CCCN(S(=O)(=O)N2CC(C#N)C2)C1)c1cc(F)c(Cl)cc1F` [Example 48, N-((1R)-1-(4-chloro-2,5-difluorophenyl)ethyl)-1-(((3S)-1-((3-cyano-1-azetidinyl)sulfonyl)-3-piperidinyl)carbonyl)-D-prolinamide], with 0.0531 µM.
Then `CN1CC(C(NC(=O)[C@H]2C[C@H]3C[C@H]3N2C(=O)c2cccc(S(C)(=O)=O)c2)c2ccc(C(F)(F)F)cc2F)CC1=O` (stereo partly drawn) [Example 575, (1R,3R,5R)-N-((2-fluoro-4-(trifluoromethyl)phenyl)(1-methyl-5-oxopyrrolidin-3-yl)methyl)-2-(3-(methylsulfonyl)benzoyl)-2-azabicyclo[3.1.0]hexane-3-carboxamrde], with 3.245 µM; and `C[C@@H](NC(=O)[C@H]1CCCN1C(=O)c1cccc(S(=O)(=O)N(C)C)c1)c1ccc(C(F)(F)F)cc1` [Example 436, 1-(3-(dimethylsulfamoyl)benzoyl)-N-((1R)-1-(4-(trifluoromethyl)phenyl)ethyl)-D-prolinamide], with 1.7 µM.
In the case of `N#CC1CN(S(=O)(=O)N2CCC[C@H](C(=O)N3CCC[C@@H]3C(=O)NCc3ccc(F)cc3Cl)C2)C1` [Example 284, N-(2-chloro-4-fluorobenzyl)-1-(((3S)-1-((3-cyano-1-azetidinyl)sulfonyl)-3-piperidinyl)carbonyl)-D-prolinamide] it was 0.7331 µM; in that of `COCC(=O)NC1CN(S(=O)(=O)N2CCC[C@H](C(=O)N3CCC[C@@H]3C(=O)NCc3ccc(C(F)(F)F)cc3)C2)C1` [Example 692, 1-(((3S)-1-((3-((methoxyacetyl)amino)-1-azetidinyl)sulfonyl)-3-piperidinyl)carbonyl)-N-(4-(trifluoromethyl)benzyl)-D-prolinamide], 5.379 µM.
Molecule `Cc1cc(C(=O)N2[C@@H](C(=O)N[C@@H](c3ccc(C(F)(F)F)cc3F)C3COC3)C[C@H]3C[C@H]32)c(NCCO)cn1` [Example 541, (1R,3R,5R)-N-((R)-(2-fluoro-4-(trifluoromethyl)phenyl)(3-oxetanyl)methyl)-2-((5-((2-hydroxyethyl)amino)-2-methyl-4-pyridinyl)carbonyl)-2-azabicyclo[3.1.0]hexane-3-carboxamide] gave an AC1.4 of 2.789 µM.
In the case of `N#CC1CN(S(=O)(=O)N2CCN[C@H](C(=O)N3CCC[C@@H]3C(=O)NCc3ccc(Cl)c(F)c3)C2)C1` [Example 174, N-(4-chloro-3-fluorobenzyl)-1-(((2S)-4-((3-cyano-1-azetidinyl)sulfonyl)-2-piperazinyl)carbonyl)-D-prolinamide] it was 0.3052 µM; in that of `Cc1cc(CNC(=O)[C@H]2CCCN2C(=O)[C@H]2CCCN(S(=O)(=O)N3CC(C#N)C3)C2)cc(C)c1F` [Example 445, 1-(((3S)-1-((3-cyano-1-azetidinyl)sulfonyl)-3-piperidinyl)carbonyl)-N-(4-fluoro-3,5-dimethylbenzyl)-D-prolinamide], 1.823 µM.
Then `O=C(NCc1ccc(C(F)(F)F)cc1)[C@H]1CCCN1C(=O)[C@H]1CCCN(S(=O)(=O)N2CC(F)(F)C2)C1` [Example 703, 1-(((3S)-1-((3,3-difluoro-1-azetidinyl)sulfonyl)-3-piperidinyl)carbonyl)-N-(4-(trifluoromethyl)benzyl)-D-prolinamide], with 5.723 µM; and `C[C@H](C(=O)NCc1ccnc(C(F)(F)F)c1)N(C)C(=O)c1cccc(S(=O)(=O)N2CC(C#N)C2)c1` [Example 722, 3-((3-cyano-1-azetidinyl)sulfonyl)-N-methyl-N-((1R)-1-methyl-2-oxo-2-(((2-(trifluoromethyl)-4-pyridinyl)methyl)amino)ethyl)benzamide], with 6.3585 µM.
